Results from patent US7417054B2, “Naphthyridine compounds” (Janssen Pharmaceutica N.V., priority 2005, dated 2008).
Read-outs that look alike come from different tables or passages of the source.

Columns and labels:
[1] = target: T1, human H3 receptor (Homo sapiens, UniProt Q9Y5N1); test: Cyclic AMP accumulation, β-galactosidase reporter in SK-N-MC cells; format: cell-based
T1 construct: expressed in transfected cells; host or cells: SK-N-MC cells
Experimental: Sublines of SK-N-MC cells were created that expressed a reporter construct and the human H3 receptor. The reporter gene (β-galactosidase) is under the control of multiple cyclic AMP responsive elements. In 96-well plates, histamine was added directly to the cell media followed 5 min later by an addition of forskolin (5 μM final concentration). When appropriate, antagonists were added 10 min prior to agonist addition. After a 6-h incubation at 37° C., the media was aspirated and the cells washed with 200 μL of phosphate-buffered saline followed by a second aspiration. Cells were lysed with 25 μL 0.1× assay buffer (10 mM Na-phosphate, pH 8, 0.2 mM MgSO4, 0.01 mM MnCl2) and incubated at rt for 10 min. Cells were then incubated for 10 min with 100 μL of 1× assay buffer containing 0.5% Triton and 40 mM β-mercaptoethanol. Color was developed using 25 μL of 1 mg/mL substrate solution (chlorophenolred β-D galactopyranoside; Roche Molecular Biochemicals, Indianapolis, Ind.) Color was quantitated on a microplate reader at absorbance 570 nm.

[2] = target: T2, human SERT (Homo sapiens, UniProt P31645); test: Human SERT binding, 3H-citalopram displacement on HEK293 membranes; conditions: HEK293 membranes expressing the human SERT, rt for 1 h
T2 construct: expressed in transfected cells; host or cells: HEK293
T2 sequence (P31645 whole entry): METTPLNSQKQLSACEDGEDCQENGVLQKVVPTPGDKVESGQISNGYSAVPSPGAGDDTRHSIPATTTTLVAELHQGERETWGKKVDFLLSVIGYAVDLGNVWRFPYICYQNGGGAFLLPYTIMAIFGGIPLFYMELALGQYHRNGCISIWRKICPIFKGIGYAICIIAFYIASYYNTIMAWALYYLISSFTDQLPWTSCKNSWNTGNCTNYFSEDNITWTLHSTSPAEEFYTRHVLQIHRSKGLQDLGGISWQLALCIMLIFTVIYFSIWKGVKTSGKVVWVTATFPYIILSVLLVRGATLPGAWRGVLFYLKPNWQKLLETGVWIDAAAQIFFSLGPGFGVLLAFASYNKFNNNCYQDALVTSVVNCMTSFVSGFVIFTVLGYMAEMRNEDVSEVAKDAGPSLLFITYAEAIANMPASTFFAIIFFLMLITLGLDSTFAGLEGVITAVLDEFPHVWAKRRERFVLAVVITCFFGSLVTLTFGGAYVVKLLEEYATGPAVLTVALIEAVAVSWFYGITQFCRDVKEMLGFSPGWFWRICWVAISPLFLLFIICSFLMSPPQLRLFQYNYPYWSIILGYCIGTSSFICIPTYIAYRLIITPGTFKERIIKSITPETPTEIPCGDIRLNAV
Experimental: Homogenized HEK293 (Human Embryonic Kidney) membranes expressing the human SERT were incubated with ^3H-citalopram (SERT) at rt for 1 h in 50 mM Tris, 120 mM NaCl, 5 mM KCl (pH 7.4). […] The membranes were washed and the radioactivity was counted as above.

[3] = target: Rat SERT (Rattus norvegicus, UniProt P31652); test: Rat brain SERT binding, [3H]-Citalopram displacement on rat brain membranes
Chain of Rat SERT (P31652 whole entry): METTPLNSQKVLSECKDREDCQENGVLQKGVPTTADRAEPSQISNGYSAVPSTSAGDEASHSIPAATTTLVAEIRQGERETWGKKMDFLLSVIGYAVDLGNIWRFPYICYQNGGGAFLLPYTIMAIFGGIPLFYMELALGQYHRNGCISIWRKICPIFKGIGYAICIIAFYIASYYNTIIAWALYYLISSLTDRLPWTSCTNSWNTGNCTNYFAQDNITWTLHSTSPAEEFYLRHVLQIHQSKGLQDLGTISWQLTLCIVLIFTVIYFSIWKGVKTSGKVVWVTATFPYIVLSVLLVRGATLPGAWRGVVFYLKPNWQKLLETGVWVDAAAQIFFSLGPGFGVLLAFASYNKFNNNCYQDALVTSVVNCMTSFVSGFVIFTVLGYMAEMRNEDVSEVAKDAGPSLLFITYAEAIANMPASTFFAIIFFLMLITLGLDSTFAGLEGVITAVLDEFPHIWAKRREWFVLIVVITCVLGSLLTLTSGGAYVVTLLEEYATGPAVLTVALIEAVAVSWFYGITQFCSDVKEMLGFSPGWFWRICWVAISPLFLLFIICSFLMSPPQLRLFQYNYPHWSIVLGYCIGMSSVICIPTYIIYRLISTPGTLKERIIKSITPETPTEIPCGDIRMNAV
Experimental: The supernatant was removed and re-centrifuged at 15,000 rpm for 30 min. […] Membranes were incubated with 0.6 nM [^3H]-Citalopram plus/minus test compounds for 60 min at 25° C. and harvested by rapid filtration over GF/C glass fiber filters (pretreated with 0.3% polyethylenimine) followed by four washes with ice-cold buffer.

[4] = target: T1, human H3 receptor; test: H3 receptor binding, N-[3H]-α-methylhistamine displacement on SK-N-MC cell membranes; conditions: cloned human H3 receptor in SK-N-MC cell membranes; 0.8 nM N-[3H]-α-methylhistamine; 60 min at 25° C.
[5] = read-out: Rat SERT Ki, rat brain membranes without cerebellum, 0.6 nM [3H]-Citalopram, 60 min at 25° C.
[6] = Rat SERT Ki (nM), rat brain membranes without cerebellum, 0.6 nM [3H]-Citalopram, 60 min at 25° C.

T1 sequence (Q9Y5N1 whole entry): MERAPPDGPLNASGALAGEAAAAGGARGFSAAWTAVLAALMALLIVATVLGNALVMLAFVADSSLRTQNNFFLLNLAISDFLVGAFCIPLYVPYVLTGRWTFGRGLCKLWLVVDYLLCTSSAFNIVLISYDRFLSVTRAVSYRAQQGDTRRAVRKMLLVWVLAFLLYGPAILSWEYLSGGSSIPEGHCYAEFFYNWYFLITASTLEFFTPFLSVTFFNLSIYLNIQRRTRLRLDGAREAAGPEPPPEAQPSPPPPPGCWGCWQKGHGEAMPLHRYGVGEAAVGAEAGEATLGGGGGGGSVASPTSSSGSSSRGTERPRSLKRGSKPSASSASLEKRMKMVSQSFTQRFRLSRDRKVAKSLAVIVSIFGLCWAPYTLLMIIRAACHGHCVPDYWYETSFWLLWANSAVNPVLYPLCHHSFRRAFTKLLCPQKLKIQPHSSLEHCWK

| SMILES | Kb ([1]; read-out: pA2 (converted)) | Ki [2] | Ki [3] | Ki [4] | Kb [1] | Ki [3, 5] | Ki [3, 6] |
| --- | --- | --- | --- | --- | --- | --- | --- |
| Clc1ccc(C2CNCc3cc(OCCCN4CCCCC4)ncc32)cc1Cl (racemic) [Example 15, 4-(3,4-Dichloro-phenyl)-7-(3-piperidin-1-yl-propoxy)-1,2,3,4-tetrahydro-[2,6]-naphthyridine] | 12.6 nM | 33 nM | 20 nM | 5 nM |  |  |  |
| CN1Cc2cc(OCCCN3CCCCC3)ncc2C(c2ccc(Cl)c(Cl)c2)C1 (racemic) [Example 16, 4-(3,4-Dichloro-phenyl)-2-methyl-7-(3-piperidin-1-yl-propoxy)-1,2,3,4-tetrahydro-[2,6]-naphthyridine] |  | 120 nM |  | 18 nM | 20 nM |  |  |
| Fc1ccccc1C1CNCc2cc(OCCCN3CCCCC3)ncc21 (stereo not shown) [Example 1, 4-(2-Fluoro-phenyl)-7-(3-piperidin-1-yl-propoxy)-1,2,3,4-tetrahydro-[2,6]naphthyridine] | 0.794 nM |  | 1000 nM | 1 nM |  |  |  |
| CN1Cc2cc(OCCCN3CCCCC3)ncc2C(c2ccccc2F)C1 (stereo not shown) [Example 2, 4-(2-Fluoro-phenyl)-2-methyl-7-(3-piperidin-1-yl-propoxy)-1,2,3,4-tetrahydro-[2,6]-naphthyridine] | 1 nM | 768 nM |  | 2 nM |  | 191 nM |  |
| c1ccc(C2CNCc3cc(OCCCN4CCCCC4)ncc32)cc1 (stereo not shown) [Example 4, 4-Phenyl-7-(3-piperidin-1-yl-propoxy)-1,2,3,4-tetrahydro-[2,6]naphthyridine] | 0.794 nM | 2330 nM |  | 1 nM |  | 1670 nM |  |
| CCN(CC)CCCOc1cc2c(cn1)C(c1ccccc1)CNC2 (stereo not shown) [Example 5, Diethyl-[3-(8-phenyl-5,6,7,8-tetrahydro-[2,6]naphthyridin-3-yloxy)-propyl]-amine] | 2 nM |  |  | 1 nM |  |  | 1200 nM |
| COc1ccc(C2CNCc3cc(OCCCN4CCCCC4)ncc32)cc1 (stereo not shown) [Example 6, 4-(4-Methoxy-phenyl)-7-(3-piperidin-1-yl-propoxy)-1,2,3,4-tetrahydro-[2,6]-naphthyridine] | 6.31 nM | 147 nM |  | 4 nM |  |  | 2280 nM |
| CCN(CC)CCCOc1cc2c(cn1)C(c1ccccc1)CN(C)C2 (stereo not shown) [Example 7, Diethyl-[3-(6-methyl-8-phenyl-5,6,7,8-tetrahydro-[2,6]naphthyridin-3-yloxy)-propyl]-amine] | 0.631 nM | 2000 nM |  | 4 nM |  | 583 nM |  |
| COc1cccc(C2CNCc3cc(OCCCN4CCCCC4)ncc32)c1 (stereo not shown) [Example 13, 4-(3-Methoxy-phenyl)-7-(3-piperidin-1-yl-propoxy)-1,2,3,4-tetrahydro-[2,6]-naphthyridine] | 1 nM |  | 179 nM | 1 nM |  |  |  |
| Fc1ccc(C2CNCc3cc(OCCCN4CCCCC4)ncc32)cc1 (stereo not shown) [Example 17, 4-(4-Fluoro-phenyl)-7-(3-piperidin-1-yl-propoxy)-1,2,3,4-tetrahydro-[2,6]naphthyridine] | 2.51 nM | 1030 nM | 312 nM | 2 nM |  |  |  |
| CN1Cc2cc(OCCCN3CCCCC3)ncc2C(c2ccc(F)cc2)C1 (stereo not shown) [Example 18, 4-(4-Fluoro-phenyl)-2-methyl-7-(3-piperidin-1-yl-propoxy)-1,2,3,4-tetrahydro-[2,6]-naphthyridine] | 3.98 nM | 362 nM |  | 9 nM |  | 186 nM |  |
| CCN(CC)CCCOc1cc2c(cn1)C(c1ccc(Cl)c(Cl)c1)CNC2 (stereo not shown) [Example 21, {3-[8-(3,4-Dichloro-phenyl)-5,6,7,8-tetrahydro-[2,6]naphthyridin-3-yloxy]-propyl}-diethyl-amine] | 15.8 nM | 26 nM |  | 7 nM |  | 15 nM |  |
| Clc1ccc(C2CNCc3cc(OCCCN4CCCCC4)ncc32)cc1 (stereo not shown) [Example 23, 4-(4-Chloro-phenyl)-7-(3-piperidin-1-yl-propoxy)-1,2,3,4-tetrahydro-[2,6]naphthyridine] | 3.98 nM | 141 nM |  | 2 nM |  | 30 nM |  |
| Clc1cccc(C2CNCc3cc(OCCCN4CCCCC4)ncc32)c1 (stereo not shown) [Example 24, 4-(3-Chloro-phenyl)-7-(3-piperidin-1-yl-propoxy)-1,2,3,4-tetrahydro-[2,6]naphthyridine] | 2.51 nM |  |  | 2 nM |  |  | 269 nM |
| Clc1ccccc1C1CNCc2cc(OCCCN3CCCCC3)ncc21 (stereo not shown) [Example 25, 4-(2-Chloro-phenyl)-7-(3-piperidin-1-yl-propoxy)-1,2,3,4-tetrahydro-[2,6]naphthyridine] | 1 nM | 1330 nM |  | 1 nM |  | 194 nM |  |
| COc1ccc(C2CNCc3cc(OCC4CCN(C(C)C)CC4)ncc32)cc1 (stereo not shown) [Example 31, 7-(1-Isopropyl-piperidin-4-ylmethoxy)-4-(4-methoxy-phenyl)-1,2,3,4-tetrahydro-[2,6]-naphthyridine] | 3.98 nM | 93 nM |  | 4 nM |  | 15 nM |  |
| Fc1cccc(C2CNCc3cc(OCCCN4CCCCC4)ncc32)c1 (stereo not shown) [Example 32, 4-(3-Fluoro-phenyl)-7-(3-piperidin-1-yl-propoxy)-1,2,3,4-tetrahydro-[2,6]naphthyridine] | 2.51 nM |  | 2000 nM | 2 nM |  |  |  |
| Fc1ccc(C2CNCc3cc(OCCCN4CCCCC4)ncc32)cc1Cl (stereo not shown) [Example 33, 4-(3-Chloro-4-fluoro-phenyl)-7-(3-piperidin-1-yl-propoxy)-1,2,3,4-tetrahydro-[2,6]naphthyridine] | 3.16 nM |  | 142 nM | 1 nM |  |  |  |
| CN1Cc2cc(OCCCN3CCCCC3)ncc2C(c2cccc(F)c2)C1 (stereo not shown) [Example 34, 4-(3-Fluoro-phenyl)-2-methyl-7-(3-piperidin-1-yl-propoxy)-1,2,3,4-tetrahydro-[2,6]-naphthyridine] | 1 nM |  | 186 nM | 2 nM |  |  |  |
| c1ccc(C2CNCc3cc(OCCCN4CCOCC4)ncc32)cc1 (stereo not shown) [Example 47, 7-(3-Morpholin-4-yl-propoxy)-4-phenyl-1,2,3,4-tetrahydro-[2,6]naphthyridine] |  |  |  | 11 nM | 12.6 nM |  |  |
